In patent US5191073A, “Chromogenic merocyanine enzyme substrates” (priority 1992, dated 1993):

Experiments:
[1] = Study of Chromogenic Substrate Properties: absorbance maxima, shift, extinction coefficient (Table D); assay type: physicochemical; settings: for λ max Chromogen / λ max Substrate: colour in words where no value; for λ max Shift: shift from substrate to chromogen; for ε × 10^3 Chromogen / ε × 10^3 Substrate: values are ε × 10^3
[2] = Study of Chromogenic Substrate Properties: pKa (Table D); assay type: physicochemical
[3] = system: β-galactosidase; test: colour change of reaction mixture or extract on treatment with β-galactosidase; assay type: biochemical
Protocol: 3-Ethyl-2-(4'-β-D-galactopyranosyloxynaphthyl-1'-vinylene)-benzothiazolium iodide (20)--Approximately equal amounts of 4-(β-D-galactopyranosyloxy) -1-naphthaldehyde (5) and 2-methylbenzothiazole ethiodide (8) (H. Richter & R. L. Dresser, supra) were heated at reflux for about 1 minute in ethanol containing a small amount of piperidine. The initially colorless mixture became red-orange during this time. The presence of (20) in the reaction mixture was determined by mixing a portion of the reaction mixture with an equal amount of dimethylformamide, diluting this with 0.1M phosphate buffer pH=7.0, and then treating the resulting solution with β-galactosidase.
3-Ethyl-2-(6'-β-D-galactopyranosyloxynaphthyl-2'-vinylene)-benzoselenazolium iodide (24)--A mixture of 6-(β-D-galactopyranosyloxy)-2-naphthaldehyde (6) (34 mg, 0.1 mmole), 2-methylbenzoselenazole ethiodide (12) (H. Richter & R. L. Dresser, supra) (35 mg, 0.1 mmole) and 0.5 mL of anhydrous pyridine was heated in a 70° C. oil bath for 20 hours.
1-Ethyl-4-(4'-β-D-galactopyranosyloxynaphthyl-1'-vinylene)-quinoliniumiodide (29)--A mixture of 4-(β-D-galactopyranosyloxy)-naphthaldehyde (5) (34 mg, 0.1 mmole), lepidine ethiodide (28) (H. Richter & R. L. Dresser, supra) (30 mg, 0.1 mmole) and 0.5 mL of anhydrous pyridine was heated in a 70° C. oil bath for 3 hours. Then an additional of 60 mg of lepidine ethiodide (28), was added and the reaction mixture was allowed to react in the 70° C. oil bath for a total of 20 hours.

[4] = system: β-galactosidase; test: Study of Chromogenic Substrate Properties: enzyme turnover, Km and Kcat (Table D); assay type: biochemical

SMILES | λ max Chromogen [1] | λ max Shift [1] | λ max Substrate [1] | pKa [2] | colour change on addition of β-galactosidase ([3]; 0.3M bicene buffer (pH 7.9), β-galactosidase and a drop of 1N NaOH) | ε × 10^3 Chromogen [1] | ε × 10^3 Substrate [1] | Kcat [4] | Km [4] [µM] | colour change on addition of β-galactosidase ([3]; dimethylformamide diluted with 0.1M phosphate buffer pH=7.0) | colour change on addition of β-galactosidase ([3]; 50 mM phosphate buffer (pH 7.4)) | time to colour change on addition of β-galactosidase ([3]; 50 mM phosphate buffer (pH 7.4), yellow to blue) [s]
C[n+]1c(/C=C/c2ccc(O[C@@H]3O[C@H](CO)[C@H](O)[C@H](O)[C@H]3O)c3ccccc23)sc2ccc3ccccc3c21 [Compound 22, 2-(4'-β-D-galactopyranosyloxynaphthyl-1'-vinylene)-3-methyl-β-naphthothiazolium iodide] | 610 | 140 | 470 | 7 | – | – | – | – | – | – | – | –
CC[n+]1c(C=Cc2ccc3cc(O[C@@H]4O[C@H](CO)[C@H](O)[C@H](O)[C@H]4O)ccc3c2)[se]c2ccccc21 [Compound 24, 3-Ethyl-2-(6'-β-D-galactopyranosyloxynaphthyl-2'-vinylene)-benzoselenazolium iodide] | purple | – | yellow | – | turned to purple immediately | – | – | – | – | – | – | –
CC[n+]1c(C=Cc2ccc(O[C@@H]3O[C@H](CO)[C@H](O)[C@H](O)[C@H]3O)c3ccccc23)sc2cc(OC)ccc21 [Compound 21, 3-Ethyl-2-(4'-β-D-galactopyranosyloxynaphthyl-1'-vinylene)-6-methoxybenzothiazolium iodide] | 598 | 176 | 422 | 6.6 | – | 80.1 | 10.5 | 2.8 × 10^3 mole/min per mole active site | 430 | – | – | –
CC[N+]1=C(C=Cc2ccc(O[C@@H]3O[C@H](CO)[C@H](O)[C@H](O)[C@H]3O)cc2)C(C)(C)c2ccccc21 [Compound 16, 1-Ethyl-2-(4'-β-D-galactopyranosyloxystyryl)-3,3-dimethylindolenium iodide] | 522 | 116 | 406 | 7.3 | – | 45.0 | 25.3 | 1.43 × 10^3 mole/min per mole active site | 18 | – | – | –
CC[n+]1c(C=Cc2ccc(O[C@@H]3O[C@H](CO)[C@H](O)[C@H](O)[C@H]3O)c3ccccc23)sc2ccccc21 [Compound 20, 3-Ethyl-2-(4'-β-D-galactopyranosyloxynaphthyl-1'-vinylene)-benzothiazolium iodide] | violet | – | yellow | – | – | – | – | – | – | turned from yellow in color to violet | – | –
CC[N+]1=C(C=Cc2ccc(O[C@@H]3O[C@H](CO)[C@H](O)[C@H](O)[C@H]3O)c3ccccc23)C(C)(C)c2ccccc21 [Compound 17, 1-Ethyl-2-(4'-β-D-galactopyranosyloxynaphthyl-1-vinylene)-3,3-dimethylindolinium iodide] | 580 | 124 | 456 | 6 | – | 82.0 | 28.0 | 7.8 × 10^3 mole/min per mole active site | 90 | – | – | –
CC[n+]1ccc(C=Cc2ccc(O[C@@H]3O[C@H](CO)[C@H](O)[C@H](O)[C@H]3O)c3ccccc23)c2ccccc21 [Compound 29, 1-Ethyl-4-(4'-β-D-galactopyranosyloxynaphthyl-1'-vinylene)-quinoliniumiodide] | blue | – | yellow | – | – | – | – | – | – | – | yellow solution turned to blue color | ≤ 5
CC[N+]1=C(C=Cc2ccc3cc(O[C@@H]4O[C@H](CO)[C@H](O)[C@H](O)[C@H]4O)ccc3c2)C(C)(C)c2ccccc21 [Compound 18, 1-Ethyl-2-(6'-β-D-galactopyranosyloxynaphthyl-2'-vinylene)-3,3-dimethylindolenium iodide] | 530 | 100 | 430 | 8.3 | – | – | 32.2 | 1.3 × 10^4 mole/min per mole active site | 80 | – | – | –
CC[n+]1c(C=Cc2ccc(O[C@@H]3O[C@H](CO)[C@H](O)[C@H](O)[C@H]3O)cc2)sc2ccccc21.[Cl-] [Compound 19, 3-Ethyl-2-(4'-β-D-galactopyranosyloxystyryl) benzothiazolium chloride] | 492 | 99 | 393 | 7.6 | – | 43.0 | – | 3.04 × 10^3 mole/min per mole active site | 17 | – | – | –
CC[n+]1c(C=Cc2ccc(O[C@@H]3O[C@H](CO)[C@H](O)[C@H](O)[C@H]3O)c3ccccc23)ccc2ccccc21 [Compound 26, 1-Ethyl-2-(4'-β-D-galactopyranosyloxynaphthyl-1'-vinylene)-quinoliniumiodide] | 606 | 172 | 434 | 6.5 | – | 70.2 | 16.0 | – | – | – | – | –
Cc1ccc2oc(C=Cc3ccc(O[C@@H]4O[C@H](CO)[C@H](O)[C@H](O)[C@H]4O)c4ccccc34)[n+](CCC(=O)O)c2c1 [Compound 25, 3-(2"-Carboxyethyl)-2-(4'-β-D-galactopyranosyloxynaphthyl-1'-vinylene)-5-methyl benzoxazolium bromide] | 550 | 130 | 420 | 6.6 | – | 50.1 | 15.8 | 9.8 × 10^2 mole/min per mole active site | 80 | – | – | –
CC[n+]1c(C=Cc2ccc(O[C@@H]3O[C@H](CO)[C@H](O)[C@H](O)[C@H]3O)c3ccccc23)sc2ccc(C)cc21 [Compound 23, 3-Ethyl-2-(4'-β-D-galactopyranosyloxynaphthyl-1'-vinylene)-5-methylbenzothiazolium iodide] | blue | – | yellow | – | – | – | – | – | – | – | – | –
